The values that follow come from patent US9353090B2, “Heterocyclic carboxylic acids as activators of soluble guanylate cyclase” (Boehringer Ingelheim International GmbH, priority 2014, dated 2016).

Each structure is given as a SMILES string. ≈ marks a conversion by molar mass, not a printed value.

In data set [1] the target is human soluble guanylate cyclase alpha 1 and beta 1 subunits (sGC) (Homo sapiens (Human), UniProt Q02108+Q02153). In words: sGC cellular activator assay (cGMP, HTRF), in the presence and absence of 50% human serum. The following applies: CHO cells stably expressing human sGC alpha 1/beta 1, preincubated with 40 microM ODQ; cGMP by HTRF; Table 2 does not state whether with or without 50% human serum. It is filed as cell-based. The method, boiled down:
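First, CHO-sGC (human α1β1) cells get 1 h ODQ at 40 microM with IBMX and 0.1% BSA. Finally, cGMP is quantified by HTRF and EC50 computed.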
In general terms: TR-FRET usually uses a lanthanide donor and a delayed reading to cut background.

The nature of a further data set: physchem. The following applies: kinetic from dmso stock.
A short description of data set [2]: Human liver microsome (HLM) metabolic stability assay. The format is in vitro ADME. The note with it: human liver microsomes. In outline: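 Remaining parent measured by LC/MS/MS (ESI, MRM) at 5, 15, 30 and 60 min relative to 0 min. Incubation: 1 uM compound, HLMs, NADPH-started, 37° C., 60 min total, single replicate. Slope of ln(% remaining) gives t1/2 = 0.693/slope, then CLint, CLh and % Qh.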
In general terms: Liver microsomes are a subcellular fraction often used to study metabolism.

The mark [3] stands for this setting: pH 2.2, aqueous buffer, Solubility (pH 2.2).
Where [4] appears, read: pH 4.5, aqueous buffer, Solubility (pH 4.5).
[5] abbreviates: pH 6.8, aqueous buffer, Solubility (pH 6.8).

Chain of human soluble guanylate cyclase alpha 1 and beta 1 subunits (sGC) (Q02108 whole entry partner): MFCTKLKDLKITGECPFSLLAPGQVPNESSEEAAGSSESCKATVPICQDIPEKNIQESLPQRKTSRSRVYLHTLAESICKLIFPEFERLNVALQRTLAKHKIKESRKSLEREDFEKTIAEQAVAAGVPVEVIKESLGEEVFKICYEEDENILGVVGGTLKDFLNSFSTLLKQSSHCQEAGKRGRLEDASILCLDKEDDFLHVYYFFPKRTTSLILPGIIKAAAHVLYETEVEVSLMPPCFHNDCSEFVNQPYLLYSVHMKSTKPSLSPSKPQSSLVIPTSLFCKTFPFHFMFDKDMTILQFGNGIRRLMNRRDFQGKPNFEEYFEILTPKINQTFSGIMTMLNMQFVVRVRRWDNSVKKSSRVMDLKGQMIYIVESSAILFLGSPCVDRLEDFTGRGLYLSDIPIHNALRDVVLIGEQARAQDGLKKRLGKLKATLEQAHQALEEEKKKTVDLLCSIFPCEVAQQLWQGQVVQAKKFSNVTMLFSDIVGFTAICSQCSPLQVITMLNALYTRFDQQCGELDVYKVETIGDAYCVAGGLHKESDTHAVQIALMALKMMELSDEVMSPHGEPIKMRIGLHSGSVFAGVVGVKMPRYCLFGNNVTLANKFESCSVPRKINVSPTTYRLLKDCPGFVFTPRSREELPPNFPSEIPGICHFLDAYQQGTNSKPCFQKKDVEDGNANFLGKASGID
Chain of human soluble guanylate cyclase alpha 1 and beta 1 subunits (sGC) (Q02153 whole entry): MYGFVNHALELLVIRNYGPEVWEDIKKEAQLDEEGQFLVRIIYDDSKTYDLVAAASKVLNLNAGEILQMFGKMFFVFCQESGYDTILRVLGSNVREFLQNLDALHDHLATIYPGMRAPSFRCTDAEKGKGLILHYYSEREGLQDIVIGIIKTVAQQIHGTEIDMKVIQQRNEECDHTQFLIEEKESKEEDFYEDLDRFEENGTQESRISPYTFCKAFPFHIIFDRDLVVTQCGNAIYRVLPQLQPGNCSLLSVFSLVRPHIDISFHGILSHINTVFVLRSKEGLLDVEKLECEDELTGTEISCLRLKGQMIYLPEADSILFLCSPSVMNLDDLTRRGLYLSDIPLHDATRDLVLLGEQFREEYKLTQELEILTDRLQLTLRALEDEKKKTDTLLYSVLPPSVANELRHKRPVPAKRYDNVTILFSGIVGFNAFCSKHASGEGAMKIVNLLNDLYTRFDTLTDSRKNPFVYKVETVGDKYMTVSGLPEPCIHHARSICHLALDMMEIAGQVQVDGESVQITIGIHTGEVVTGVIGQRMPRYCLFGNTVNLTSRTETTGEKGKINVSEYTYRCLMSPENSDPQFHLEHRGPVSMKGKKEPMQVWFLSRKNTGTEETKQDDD

Usually EC50 stands for the concentration needed to bring the measured effect to its halfway point. High values mean a less potent agent, low ones a more potent agent. The term solubility denotes the concentration that dissolves in the medium under given conditions. `Cc1cc(COc2c(C)cccc2-c2csc(N3CC[C@@]4(C(=O)O)C[C@H]4C3)n2)cc2c1CN(C1CCOCC1)CC2` [Compound 96] displayed an EC50 in data set [1] of 2 nM. For the same compound, the solubility at 24 h turned out to be 120 µg/mL (≈ 209 µM) in the data set “physchem” (setting [3]), 68 µg/mL (≈ 119 µM) in “physchem” (setting [4]) and 52 µg/mL (≈ 90.6 µM) in the data set “physchem” (setting [5]). Also, the “Metabolic stability (Qh %), % hepatic blood flow” value (“Metabolic stability (Qh %)” below) in data set [2] is 33%.

Regarding `Cc1ccc(OCc2ccc3c(c2)CCN(C2CCOC2)C3)c(-c2csc(N3CC[C@@]4(C(=O)O)C[C@H]4C3)n2)c1` (some centres unmarked) [Compound 114], it took 7 nM to reach a half-maximal effect in data set [1] (EC50). The values for the solubility at 24 h in the data set “physchem” (setting [3]), in the data set “physchem” (setting [4]) and in “physchem” (setting [5]) were 120 µg/mL (≈ 220 µM), 38 µg/mL (≈ 69.6 µM) and 5 µg/mL (≈ 9.16 µM), respectively. Besides, the “Metabolic stability (Qh %)” value in data set [2] was less than 24%.

`Cc1ccc(OCc2ccc3c(c2C)CCN(C2COC2)C3)c(-c2csc(N3CC[C@@]4(C(=O)O)C[C@H]4C3)n2)c1` [Compound 116] came in with an EC50 in data set [1] of 35 nM. The values for the solubility at 24 h in the data set “physchem” (setting [3]), in “physchem” (setting [4]) and in “physchem” (setting [5]) were 140 µg/mL (≈ 257 µM), 11 µg/mL (≈ 20.2 µM) and 6 µg/mL (≈ 11 µM), respectively. Besides, in data set [2], the “Metabolic stability (Qh %)” value is less than 24%.

For `CO[C@@H]1CN(c2cccc(-c3cc(C)ccc3OCc3cc(C)c4c(c3)CCN(C3CCOCC3)C4)n2)CC[C@@H]1C(=O)O` [Compound 76], in data set [1], a half-maximal response (EC50) required 25 nM. In addition, the figures for the solubility at 24 h in the data set “physchem” (setting [3]), in “physchem” (setting [4]) and in “physchem” (setting [5]) were 130 µg/mL (≈ 222 µM), 110 µg/mL (≈ 188 µM) and 80 µg/mL (≈ 137 µM), respectively. The “Metabolic stability (Qh %)” value in data set [2] is less than 24%.

`CCO[C@@H]1CN(c2nc(-c3cccc(C)c3OCc3cc(F)c4c(c3)CCN(C3CCOCC3)C4)cs2)CC[C@@H]1C(=O)O` [Compound 238]: it took 4 nM to reach a half-maximal effect in data set [1] (EC50). For the same compound, the solubility at 24 h in “physchem” (setting [3]) came to 112 µg/mL (≈ 183 µM); in the data set “physchem” (setting [4]), 109 µg/mL (≈ 179 µM); in the data set “physchem” (setting [5]), 109 µg/mL (≈ 178 µM). Further, in data set [2], the “Metabolic stability (Qh %)” value was less than 24%.

`COC[C@H]1N(c2cccc(-c3cccc(C)c3OCc3ccc4c(c3)[C@@H](C)CN(C3CCOCC3)CC4)n2)C[C@@H]2C[C@@]21C(=O)O` [Compound 225]: in data set [1], it took 5 nM to reach a half-maximal effect (EC50). The solubility at 24 h in “physchem” (setting [3]) is 136 µg/mL (≈ 222 µM); in “physchem” (setting [4]), 135 µg/mL (≈ 220 µM); in “physchem” (setting [5]), 129 µg/mL (≈ 211 µM). In addition, in data set [2], the “Metabolic stability (Qh %)” value is given as 25%.

`COc1cc(COc2c(C)cccc2-c2csc(N3CC[C@@H](C(=O)O)[C@@H](OC)C3)n2)cc2c1CN([C@H]1CCOC1)CC2` [Compound 211] returned an EC50 in data set [1] of 18 nM. For the same compound, the figures for the solubility at 24 h in the data set “physchem” (setting [3]), in the data set “physchem” (setting [4]) and in the data set “physchem” (setting [5]) were 133 µg/mL (≈ 224 µM), 83.4 µg/mL (≈ 140 µM) and 76.5 µg/mL (≈ 129 µM), respectively. In addition, the “Metabolic stability (Qh %)” value in data set [2] is on record as less than 24%.

Take `CO[C@H]1CN(c2nc(-c3cccc(Cl)c3OCc3ccc4c(c3)[C@H](C)CN(C3COC3)CC4)cs2)CC[C@H]1C(=O)O` [Compound 322]: the EC50 in data set [1] was found to be 7 nM. Further, the solubility at 24 h in “physchem” (setting [3]) is 110 µg/mL (≈ 184 µM); in the data set “physchem” (setting [4]) it was 36.4 µg/mL (≈ 60.9 µM); in the data set “physchem” (setting [5]), 60.2 µg/mL (≈ 101 µM). In data set [2], the “Metabolic stability (Qh %)” value is 47%.

For `Cc1cccc(-c2cccc(N3C[C@@H]4C[C@]4(C(=O)O)C3)n2)c1OCc1cc(C#N)c2c(c1)CCN(C1CCOCC1)C2` [Compound 30], the EC50 in data set [1] was 8 nM. Further, the solubility at 24 h in the data set “physchem” (setting [3]) stood at 110 µg/mL (≈ 195 µM); in the data set “physchem” (setting [4]) it was 84 µg/mL (≈ 149 µM); in “physchem” (setting [5]), 62 µg/mL (≈ 110 µM). The “Metabolic stability (Qh %)” value in data set [2] was less than 24%.

Compound `Cc1cccc(-c2cccc(N3C[C@@H]4C[C@]4(C(=O)O)C3)n2)c1OCc1cc(C#N)c2c(c1)CCN(C1COC1)C2` [Compound 29] registered an EC50 in data set [1] of 18 nM. Moreover, the solubility at 24 h in the data set “physchem” (setting [3]) is 110 µg/mL (≈ 205 µM); in “physchem” (setting [4]), 76 µg/mL (≈ 142 µM); in the data set “physchem” (setting [5]), 79 µg/mL (≈ 147 µM). Moreover, in data set [2], the “Metabolic stability (Qh %)” value was less than 24%.

In turn, `COC[C@H]1N(c2nc(-c3cccc(C)c3OCc3ccc4c(c3C)CCN(C3CCC3)C4)cs2)C[C@@H]2C[C@@]21C(=O)O` [Compound 160] displayed an EC50 in data set [1] of 105 nM. Besides, the results for the solubility at 24 h in “physchem” (setting [3]), in the data set “physchem” (setting [4]) and in “physchem” (setting [5]) were 120 µg/mL (≈ 209 µM), less than 0.1 µg/mL and 75 µg/mL (≈ 131 µM), respectively. In addition, the “Metabolic stability (Qh %)” value in data set [2] was 38%.

In data set [1], `CO[C@H]1CN(c2nc(-c3cccc(C)c3OCc3cc(C)c4c(c3F)CCN(C3CCOCC3)C4)cs2)CC[C@H]1C(=O)O` [Compound 242] registered an EC50 of 4 nM. Besides, the figures for the solubility at 24 h in “physchem” (setting [3]), in the data set “physchem” (setting [4]) and in the data set “physchem” (setting [5]) were 126 µg/mL (≈ 206 µM), 116 µg/mL (≈ 191 µM) and 115 µg/mL (≈ 189 µM), respectively. Moreover, in data set [2], the “Metabolic stability (Qh %)” value is reported as less than 24%.

`Cc1ccc(OCc2cc(C)c3c(c2C)CCN(C2CCOCC2)C3)c(-c2csc(N3CC[C@@]4(C(=O)O)C[C@H]4C3)n2)c1` [Compound 125]: the EC50 in data set [1] is 23 nM. The solubility at 24 h was found to be 140 µg/mL (≈ 238 µM) in “physchem” (setting [3]), 20 µg/mL (≈ 34 µM) in the data set “physchem” (setting [4]) and 1.2 µg/mL (≈ 2.04 µM) in “physchem” (setting [5]). Further, the “Metabolic stability (Qh %)” value in data set [2] is recorded as less than 24%.

With `CO[C@H]1CN(c2nc(-c3cccc(Cl)c3OCc3ccc4c(c3)[C@@H](C)CN(C3CCOCC3)CC4)cs2)CC[C@H]1C(=O)O` [Compound 319], in data set [1], the EC50 amounted to 1 nM. In addition, the solubility at 24 h was 109 µg/mL (≈ 173 µM) in the data set “physchem” (setting [3]), 60.2 µg/mL (≈ 96.1 µM) in “physchem” (setting [4]) and 55.4 µg/mL (≈ 88.5 µM) in “physchem” (setting [5]). Besides, the “Metabolic stability (Qh %)” value in data set [2] turned out to be 25%.

For the compound `CO[C@@H]1CN(c2cccc(-c3cccc(C)c3OCc3ccc4c(c3C)CCN(C3COC3)CC4)n2)CC[C@@H]1C(=O)O` [Compound 196], a half-maximal effect in data set [1] (EC50) was put at 3 nM. The solubility at 24 h in “physchem” (setting [3]) came out at 117 µg/mL (≈ 205 µM); in “physchem” (setting [4]), 114 µg/mL (≈ 199 µM); in the data set “physchem” (setting [5]) it was 107 µg/mL (≈ 187 µM). Moreover, the “Metabolic stability (Qh %)” value in data set [2] was found to be 24%.

`Cc1ccc(OCc2ccc3c(c2C)CCN(C2CCOCC2)C3)c(-c2csc(N3CC[C@@]4(C(=O)O)C[C@H]4C3)n2)c1` [Compound 115]: the EC50 in data set [1] was 11 nM. The results for the solubility at 24 h in the data set “physchem” (setting [3]), in “physchem” (setting [4]) and in “physchem” (setting [5]) were 130 µg/mL (≈ 227 µM), 36 µg/mL (≈ 62.7 µM) and 5.1 µg/mL (≈ 8.89 µM), respectively. Also, the “Metabolic stability (Qh %)” value in data set [2] is less than 24%.

`CO[C@@H]1CN(c2cccc(-c3cccc(C)c3OCc3cc(C)c4c(c3)CCN(C3CCOCC3)CC4)n2)CC[C@@H]1C(=O)O` [Compound 293] displayed an EC50 in data set [1] of 1 nM. In addition, the results for the solubility at 24 h in “physchem” (setting [3]), in the data set “physchem” (setting [4]) and in the data set “physchem” (setting [5]) were 116 µg/mL (≈ 193 µM), 82.3 µg/mL (≈ 137 µM) and 63.1 µg/mL (≈ 105 µM), respectively. Further, the “Metabolic stability (Qh %)” value in data set [2] is given as 25%.

Turning to `CCO[C@@H]1CN(c2cccc(-c3cc(C)ccc3OCc3cc4c(c(OC)c3)CN(C3CCOCC3)CC4)n2)CC[C@@H]1C(=O)O` [Compound 231], it took 13 nM to reach a half-maximal effect in data set [1] (EC50). Also, the solubility at 24 h was 126 µg/mL (≈ 205 µM) in the data set “physchem” (setting [3]), 126 µg/mL (≈ 205 µM) in “physchem” (setting [4]) and 121 µg/mL (≈ 196 µM) in “physchem” (setting [5]). Further, in data set [2], the “Metabolic stability (Qh %)” value is listed as 58%.

For `Cc1cccc(-c2cccc(N3C[C@@H]4C[C@]4(C(=O)O)C3)n2)c1OCc1ccc2c(c1C)CCN(C1CCOCC1)CC2` [Compound 33], the EC50 in data set [1] stood at 4 nM. For the same compound, the solubility at 24 h in “physchem” (setting [3]) was determined as 110 µg/mL (≈ 194 µM); in the data set “physchem” (setting [4]), 93 µg/mL (≈ 164 µM); in the data set “physchem” (setting [5]) it was 68 µg/mL (≈ 120 µM). Besides, the “Metabolic stability (Qh %)” value in data set [2] is less than 24%.
